Measured values published in patent US9662327B2 (AGIOS PHARMACEUTICALS, INC, priority 2011, dated 2017).

Target: IDH1 R132H (Homo sapiens (Human), UniProt O75874, R132H)
Assay: Assays for IDH1 R132H Inhibitors (NADPH/aKG, resazurin detection)
Type: biochemical
Details: IDH1 R132H enzyme, Table 2; read-out: IDHR132H Activity
Procedure, shortened: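 Substrate mix held 8 uM NADPH plus 2 mM aKG; buffer was 20 mM Tris pH 7.5 with 150 mM NaCl, 10 mM MgCl2, 0.03% BSA. After 50 min room-temperature reaction, NADPH remaining was detected with 30 μM resazurin mix over 5 min.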

IDH1 R132H, sequence (O75874 whole entry R132H): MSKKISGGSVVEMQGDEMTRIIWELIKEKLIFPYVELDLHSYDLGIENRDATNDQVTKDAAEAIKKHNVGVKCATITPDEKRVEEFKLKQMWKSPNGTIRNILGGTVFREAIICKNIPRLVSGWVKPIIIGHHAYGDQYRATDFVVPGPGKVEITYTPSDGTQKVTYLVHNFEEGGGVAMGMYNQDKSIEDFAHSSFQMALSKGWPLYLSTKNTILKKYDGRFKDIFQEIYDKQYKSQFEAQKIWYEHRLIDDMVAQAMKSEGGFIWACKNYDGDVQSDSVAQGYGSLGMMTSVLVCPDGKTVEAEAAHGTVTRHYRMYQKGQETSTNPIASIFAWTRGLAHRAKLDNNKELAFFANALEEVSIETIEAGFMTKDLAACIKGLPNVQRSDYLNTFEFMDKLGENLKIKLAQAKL

Row | SMILES | IC50 [nM]
1 | CC(C)[C@@H]1CN(c2nc(C3CC3)c3c(c2C#N)CC(C)(C)OC3)CCN1C(=O)Cn1cccn1 [Compound 325, (R)-6-(4-(2-(1H-pyrazol-1-yl)acetyl)-3-isopropylpiperazin-1-yl)-8-cyclopropyl-3,3-dimethyl-3,4-dihydro-1H-pyrano[3,4-c]pyridine-5-carbonitrile] | 500 to 1000
2 | CCCCCNC(=O)N1CCN(c2nc(C3CC3)c3c(c2C#N)CC(C)(C)OC3)C[C@H]1C(C)C [Compound 327] | 1000 to 10000
3 | CCOC(=O)C1CN(c2nc(C(C)C)c3c(c2C#N)CC(C)(C)OC3)CCN1C(=O)OCCOC (stereo not shown) [Compound 329, 2-ethyl 1-(2-methoxyethyl) 4-(5-cyano-8-isopropyl-3,3-dimethyl-3,4-dihydro-1H-pyrano[3,4-c]pyridin-6-yl)piperazine-1,2-dicarboxylate] | 1000 to 10000
4 | C=CCNC(=O)N1CCN(c2nc(C(C)C)c3c(c2C#N)CC(C)(C)OC3)CC1C(=O)OCC (stereo not shown) [Compound 331, ethyl 1-(allylcarbamoyl)-4-(5-cyano-8-isopropyl-3,3-dimethyl-3,4-dihydro-1H-pyrano[3,4-c]pyridin-6-yl)piperazine-2-carboxylate] | 1000 to 10000
5 | CCOC(=O)C1CN(c2nc(C(C)C)c3c(c2C#N)CC(C)(C)OC3)CCN1C(=O)Cc1cccs1 (stereo not shown) [Compound 332, ethyl 4-(5-cyano-8-isopropyl-3,3-dimethyl-3,4-dihydro-1H-pyrano[3,4-c]pyridin-6-yl)-1-(2-(thiophen-2-yl)acetyl)piperazine-2-carboxylate] | 500 to 1000
6 | CCOC(=O)C1CN(c2nc(C(C)C)c3c(c2C#N)CC(C)(C)OC3)CCN1C(=O)OC (stereo not shown) [Compound 333, 2-ethyl 1-methyl 4-(5-cyano-8-isopropyl-3,3-dimethyl-3,4-dihydro-1H-pyrano[3,4-c]pyridine-6-yl)piperazine-1,2-dicarboxylate] | 1000 to 10000
7 | COc1ccc(OC(=O)N2CCN(c3nc(C4CC4)c4c(c3C#N)CC(C)(C)OC4)C[C@H]2C(C)C)cc1 [Compound 337, (R)-4-methoxyphenyl 4-(5-cyano-8-cyclopropyl-3,3-dimethyl-3,4-dihydro-1H-pyrano[3,4-c]pyridine-6-yl)-2-isopropylpiperazine-1-carboxylate] | 1000 to 10000
8 | CON(C)CC(=O)N1CCN(c2nc(C3CC3)c3c(c2C#N)CC(C)(C)OC3)C[C@H]1C(C)C [Compound 338] | 1000 to 10000
9 | CC(C)COC(=O)N1CCN(c2nc(C3CC3)c3c(c2C#N)CC(C)(C)OC3)C[C@H]1C(C)C [Compound 339, (R)-isobutyl 4-(5-cyano-8-cyclopropyl-3,3-dimethyl-3,4-dihydro-1H-pyrano[3,4-c]pyridin-6-yl)-2-isopropyl-piperazine-1-carboxylate] | 1000 to 10000
10 | COCC(=O)N1CCN(c2nc(C3CC3)c3c(c2C#N)CC(C)(C)OC3)C[C@H]1C(C)C [Compound 347, (R)-8-cyclopropyl-6-(3-isopropyl-4-(2-methoxyacetyl)piperazin-1-yl)-3,3-dimethyl-3,4-dihydro-1H-pyrano[3,4-c]pyridine-5-carbonitrile] | < 500
11 | CC(C)[C@@H]1CN(c2nc(C3CC3)c3c(c2C#N)CC(C)(C)OC3)CCN1C(=O)COCCO [Compound 348] | 1000 to 10000
12 | CCCNC(=O)N1CCN(c2nc(C3CC3)c3c(c2C#N)CC(C)(C)OC3)C[C@H]1C(C)C [Compound 350, (R)-4-(5-cyano-8-cyclopropyl-3,3-dimethyl-3,4-dihydro-1H-pyrano[3,4-c]pyridin-6-yl)-2-isopropyl-N-propylpiperazine-1-carboxamide] | 1000 to 10000
13 | CC(C)[C@@H]1CN(c2nc(C3CC3)c3c(c2C#N)CC(C)(C)OC3)CCN1C(=O)N(C)C [Compound 351] | 1000 to 10000
14 | COCCNC(=O)N1CCN(c2nc(C3CC3)c3c(c2C#N)CC(C)(C)OC3)C[C@H]1C(C)C [Compound 353] | 500 to 1000
15 | COCCC(=O)N1[C@H](C)CN(c2nc(C3CC3)c3c(c2C#N)CC(C)(C)OC3)C[C@@H]1C [Compound 356] | 1000 to 10000
16 | CCCOC(=O)N1CCN(c2nc(C(C)C)c3c(c2C#N)CC(C)(C)OC3)CC1C(=O)OCC (stereo not shown) [Compound 364, 2-ethyl 1-propyl 4-(5-cyano-8-isopropyl-3,3-dimethyl-3,4-dihydro-1H-pyrano[3,4-c]pyridin-6-yl)piperazine-1,2-dicarboxylate] | 1000 to 10000
17 | CCOC(=O)N1CCN(c2nc(C3CC3)c3c(c2C#N)CC(C)(C)OC3)C[C@H]1C(C)C [Compound 367] | 1000 to 10000

More lines, now with the values ahead:

Row | IC50 [nM] | SMILES
18 | 1000 to 10000 | C=CCNC(=O)N1CCN(c2nc(C3CCCCC3)c3c(c2C#N)CCOC3)CC1C(=O)OCC (stereo not shown) [Compound 330, ethyl 1-(allylcarbamoyl)-4-(5-cyano-8-cyclohexyl-3,4-dihydro-1H-pyrano[3,4-c]pyridin-6-yl)-piperazine-2-carboxylate]
19 | 1000 to 10000 | C=CCNC(=O)N1CCN(c2nc(C3CCCCC3)c3c(c2C#N)CCOC3)C[C@H]1C [Compound 334, (R)—N-allyl-4-(5-cyano-8-cyclohexyl-3,4-dihydro-1H-pyrano[3,4-c]pyridin-6-yl)-2-methylpiperazine-1-carboxamide]
20 | 1000 to 10000 | CCNC(=O)N1CCN(c2nc(C3CCCCC3)c3c(c2C#N)CCOC3)C[C@H]1C [Compound 335, (R)-4-(5-cyano-8-cyclohexyl-3,4-dihydro-1H-pyrano[3,4-c]pyridin-6-yl)-N-ethyl-2-methylpiperazine-1-carboxamide]
21 | 1000 to 10000 | C[C@@H]1CN(c2nc(C3CCCCC3)c3c(c2C#N)CCOC3)CCN1S(C)(=O)=O [Compound 336, (R)-8-cyclohexyl-6-(3-methyl-4-(methylsulfonyl)piperazin-1-yl)-3,4-dihydro-1H-pyrano[3,4-c]pyridine-5-carbonitrile]
22 | < 500 | C[C@@H]1CN(c2nc(C3CCCCC3)c3c(c2C#N)CCOC3)CCN1C(=O)CCl [Compound 340, (R)-6-(4-(2-chloroacetyl)-3-methylpiperazin-1-yl)-8-cyclohexyl-3,4-dihydro-1H-pyrano[3,4-c]pyridine-5-carbonitrile]
23 | 1000 to 10000 | COCC(=O)N1CCN(c2nc(C3CCCCC3)c3c(c2C#N)CCOC3)C[C@H]1C [Compound 341]
24 | 1000 to 10000 | COC(=O)CN1CCN(c2nc(C3CCCCC3)c3c(c2C#N)CCOC3)C[C@H]1C [Compound 342, (R)-methyl 2-(4-(5-cyano-8-cyclohexyl-3,4-dihydro-1H-pyrano[3,4-c]pyridin-6-yl)-2-methylpiperazin-1-yl)acetate]
25 | 1000 to 10000 | C[C@@H]1CN(c2nc(C3CCCCC3)c3c(c2C#N)CCOC3)CCN1C(=O)OCc1ccccc1 [Compound 343, (R)-benzyl 4-(5-cyano-8-cyclohexyl-3,4-dihydro-1H-pyrano[3,4-c]pyridin-6-yl)-2-methylpiperazine-1-carboxylate]
26 | < 500 | CNC(=O)N1CCN(c2nc(C3CC3)c3c(c2C#N)CC(C)(C)OC3)C[C@H]1C(C)C [Compound 344]
27 | < 500 | COC(=O)N1CCN(c2nc(C3CC3)c3c(c2C#N)CC(C)(C)OC3)C[C@H]1C(C)C [Compound 346, (R)-methyl 4-(5-cyano-8-cyclopropyl-3,3-dimethyl-3,4-dihydro-1H-pyrano[3,4-c]pyridin-6-yl)-2-isopropylpiperazine-1-carboxylate]
28 | 500 to 1000 | CC(=O)N1CCN(c2nc(C3CC3)c3c(c2C#N)CC(C)(C)OC3)C[C@H]1C(C)C [Compound 352]
29 | < 500 | CCC(=O)N1CCN(c2nc(C3CC3)c3c(c2C#N)CC(C)(C)OC3)C[C@H]1C(C)C [Compound 354, (R)-8-cyclopropyl-6-(3-isopropyl-4-propionylpiperazin-1-yl)-3,3-dimethyl-3,4-dihydro-1H-pyrano[3,4-c]pyridine-5-carbonitrile]
30 | 1000 to 10000 | CNC(=O)N1CCN(c2nc(C3CCCCC3)c3c(c2C#N)CCOC3)C[C@H]1C [Compound 357, (R)-4-(5-cyano-8-cyclohexyl-3,4-dihydro-1H-pyrano[3,4-c]pyridin-6-yl)-N,2-dimethylpiperazine-1-carboxamide]
31 | 1000 to 10000 | CCOC(=O)N1CCN(c2nc(C3CCCCC3)c3c(c2C#N)CCOC3)C[C@H]1C [Compound 358, (R)-ethyl 4-(5-cyano-8-cyclohexyl-3,4-dihydro-1H-pyrano[3,4-c]pyridin-6-yl)-2-methylpiperazine-1-carboxylate]
32 | 1000 to 10000 | CCCOC(=O)N1CCN(c2nc(C3CCCCC3)c3c(c2C#N)CCOC3)C[C@H]1C [Compound 359, (R)-propyl 4-(5-cyano-8-cyclohexyl-3,4-dihydro-1H-pyrano[3,4-c]pyridin-6-yl)-2-methylpiperazine-1-carboxylate]
33 | 1000 to 10000 | C[C@@H]1CN(c2nc(C3CCCCC3)c3c(c2C#N)CCOC3)CCN1C(=O)NC1CC1 [Compound 360, (R)-4-(5-cyano-8-cyclohexyl-3,4-dihydro-1H-pyrano[3,4-c]pyridin-6-yl)-N-cyclopropyl-2-methylpiperazine-1-carboxamide]
34 | 1000 to 10000 | C#CCNC(=O)N1CCN(c2nc(C3CCCCC3)c3c(c2C#N)CCOC3)C[C@H]1C [Compound 361, (R)-4-(5-cyano-8-cyclohexyl-3,4-dihydro-1H-pyrano[3,4-c]pyridin-6-yl)-2-methyl-N-(prop-2-ynyl)piperazine-1-carboxamide]
35 | 1000 to 10000 | CC(=O)N1CCN(c2nc(C3CCCCC3)c3c(c2C#N)CCOC3)C[C@H]1C [Compound 362, (R)-6-(4-acetyl-3-methylpiperazin-1-yl)-8-cyclohexyl-3,4-dihydro-1H-pyrano[3,4-c]pyridine-5-carbonitrile]
36 | 1000 to 10000 | CCC(=O)N1CCN(c2nc(C3CCCCC3)c3c(c2C#N)CCOC3)C[C@H]1C [Compound 363, (R)-8-cyclohexyl-6-(3-methyl-4-propionylpiperazin-1-yl)-3,4-dihydro-1H-pyrano[3,4-c]pyridine-5-carbonitrile]
37 | 1000 to 10000 | CC(C)[C@@H]1CN(c2nc(C3CC3)c3c(c2C#N)CC(C)(C)OC3)CCN1C(=O)NCC1CC1 [Compound 365]
